Results: ChEMBL document CHEMBL4507256 (2021)

Assays:
Conditions in all cases: Compound concentration 1000.0 nM
[1] = tested on: Tyrosine-protein kinase ABL1 (Homo sapiens), P00519 [E255K]
[2] = biological target: Activin receptor type-1 (Homo sapiens) (UniProt Q04771)
[3] = biological target: Aurora kinase A (Homo sapiens) (UniProt O14965)
[4] = biological target: Aurora kinase C (Homo sapiens) (UniProt Q9UQB9)
[5] = biological target: Tyrosine-protein kinase Blk (Homo sapiens) (UniProt P51451)
[6] = biological target: Bone morphogenetic protein receptor type-1A (Homo sapiens) (UniProt P36894)
[7] = biological target: Calcium/calmodulin-dependent protein kinase type IV (Homo sapiens) (UniProt Q16566)
[8] = biological target: Cyclin-dependent kinase 19 (Homo sapiens) (UniProt Q9BWU1)
[9] = biological target: Cyclin-dependent kinase 2 (Homo sapiens) (UniProt P24941)
[10] = biological target: Serine/threonine-protein kinase Chk2 (Homo sapiens) (UniProt O96017)
[11] = biological target: Dual specificity protein kinase CLK1 (Homo sapiens) (UniProt P49759)
[12] = biological target: Casein kinase I isoform epsilon (Homo sapiens) (UniProt P49674)
[13] = biological target: Death-associated protein kinase 3 (Homo sapiens) (UniProt O43293)
[14] = biological target: Discoidin domain-containing receptor 2 (Homo sapiens) (UniProt Q16832)
[15] = tested on: Epidermal growth factor receptor (Homo sapiens), P00533 [UNDEFINED MUTATION]
[16] = tested on: Epidermal growth factor receptor (Homo sapiens), P00533 [L858R]
[17] = tested on: Epidermal growth factor receptor (Homo sapiens), P00533 [UNDEFINED MUTATION]; remark: listed apart in the source
[18] = biological target: Ephrin type-A receptor 7 (Homo sapiens) (UniProt Q15375)
[19] = biological target: Ephrin type-A receptor 8 (Homo sapiens) (UniProt P29322)
[20] = biological target: Ephrin type-B receptor 2 (Homo sapiens) (UniProt P29323)
[21] = tested on: Receptor-type tyrosine-protein kinase FLT3 (Homo sapiens), P36888 [UNDEFINED MUTATION]
[22] = tested on: eIF-2-alpha kinase GCN2 (Homo sapiens), Q9P2K8 [S808G]
[23] = biological target: Rhodopsin kinase GRK1 (Homo sapiens) (UniProt Q15835)
[24] = biological target: G protein-coupled receptor kinase 3 (Homo sapiens) (UniProt P35626)
[25] = biological target: Rhodopsin kinase GRK7 (Homo sapiens) (UniProt Q8WTQ7)
[26] = biological target: Mitogen-activated protein kinase kinase kinase kinase 1 (Homo sapiens) (UniProt Q92918)
[27] = biological target: Interleukin-1 receptor-associated kinase 3 (Homo sapiens) (UniProt Q9Y616)
[28] = biological target: Mast/stem cell growth factor receptor Kit (Homo sapiens) (UniProt P10721)
[29] = biological target: Serine/threonine-protein kinase LATS1 (Homo sapiens) (UniProt O95835)
[30] = biological target: LIM domain kinase 1 (Homo sapiens) (UniProt P53667)
[31] = biological target: Serine/threonine-protein kinase Nek7 (Homo sapiens) (UniProt Q8TDX7)
[32] = biological target: Platelet-derived growth factor receptor beta (Homo sapiens) (UniProt P09619)
[33] = biological target: Serine/threonine-protein kinase PknB (Mycobacterium tuberculosis) (UniProt P9WI81)
[34] = biological target: Protein kinase C epsilon type (Homo sapiens) (UniProt Q02156)
[35] = tested on: Proto-oncogene tyrosine-protein kinase receptor Ret (Homo sapiens), P07949 [V804L]
[36] = biological target: Rho-associated protein kinase 1 (Homo sapiens) (UniProt Q13464)
[37] = biological target: Ribosomal protein S6 kinase alpha-4 (Homo sapiens) (UniProt O75676)
[38] = biological target: Ribosomal protein S6 kinase alpha-5 (Homo sapiens) (UniProt O75582)
[39] = biological target: Ribosomal protein S6 kinase beta-1 (Homo sapiens) (UniProt P23443)
[40] = biological target: Serine/threonine-protein kinase Sgk1 (Homo sapiens) (UniProt O00141)
[41] = biological target: Activated CDC42 kinase 1 (Homo sapiens) (UniProt Q07912)
[42] = biological target: Serine/threonine-protein kinase TNNI3K (Homo sapiens) (UniProt Q59H18)
[43] = biological target: Transient receptor potential cation channel subfamily M member 6 (Homo sapiens) (UniProt Q9BX84)
[44] = biological target: Tyrosine-protein kinase TXK (Homo sapiens) (UniProt P42681)
[45] = biological target: Non-receptor tyrosine-protein kinase TYK2 (Homo sapiens) (UniProt P29597)

Measured: residual activity

Ephrin type-B receptor 2 (Homo sapiens), sequence (P29323 whole entry): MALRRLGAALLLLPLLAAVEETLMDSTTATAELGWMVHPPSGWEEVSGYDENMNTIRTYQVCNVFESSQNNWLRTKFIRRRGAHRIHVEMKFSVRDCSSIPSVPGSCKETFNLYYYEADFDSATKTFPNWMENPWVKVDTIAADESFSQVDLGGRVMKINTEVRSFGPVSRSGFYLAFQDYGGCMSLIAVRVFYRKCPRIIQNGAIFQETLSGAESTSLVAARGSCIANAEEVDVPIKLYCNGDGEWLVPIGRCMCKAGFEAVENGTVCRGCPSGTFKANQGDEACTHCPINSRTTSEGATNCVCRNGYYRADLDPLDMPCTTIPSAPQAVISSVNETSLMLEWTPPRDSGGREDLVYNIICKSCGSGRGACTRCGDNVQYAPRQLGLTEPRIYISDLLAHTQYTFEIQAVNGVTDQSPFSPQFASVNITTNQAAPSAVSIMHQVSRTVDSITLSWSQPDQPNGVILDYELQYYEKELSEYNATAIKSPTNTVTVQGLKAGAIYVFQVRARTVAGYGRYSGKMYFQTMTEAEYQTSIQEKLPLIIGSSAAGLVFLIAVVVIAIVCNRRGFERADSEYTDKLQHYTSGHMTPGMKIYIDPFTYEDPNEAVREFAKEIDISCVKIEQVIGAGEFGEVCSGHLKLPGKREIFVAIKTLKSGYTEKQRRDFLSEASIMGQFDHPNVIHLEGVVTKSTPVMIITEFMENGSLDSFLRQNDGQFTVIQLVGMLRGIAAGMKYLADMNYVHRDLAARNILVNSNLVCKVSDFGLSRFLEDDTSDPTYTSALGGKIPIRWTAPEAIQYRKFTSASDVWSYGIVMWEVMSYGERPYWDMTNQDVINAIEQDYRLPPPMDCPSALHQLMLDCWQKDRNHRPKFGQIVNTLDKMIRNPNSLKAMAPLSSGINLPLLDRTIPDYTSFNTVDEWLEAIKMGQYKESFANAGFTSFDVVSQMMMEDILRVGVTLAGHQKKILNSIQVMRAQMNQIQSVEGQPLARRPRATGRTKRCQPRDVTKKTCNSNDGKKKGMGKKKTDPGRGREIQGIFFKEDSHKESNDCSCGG
Transient receptor potential cation channel subfamily M member 6 (Homo sapiens), sequence (Q9BX84 whole entry): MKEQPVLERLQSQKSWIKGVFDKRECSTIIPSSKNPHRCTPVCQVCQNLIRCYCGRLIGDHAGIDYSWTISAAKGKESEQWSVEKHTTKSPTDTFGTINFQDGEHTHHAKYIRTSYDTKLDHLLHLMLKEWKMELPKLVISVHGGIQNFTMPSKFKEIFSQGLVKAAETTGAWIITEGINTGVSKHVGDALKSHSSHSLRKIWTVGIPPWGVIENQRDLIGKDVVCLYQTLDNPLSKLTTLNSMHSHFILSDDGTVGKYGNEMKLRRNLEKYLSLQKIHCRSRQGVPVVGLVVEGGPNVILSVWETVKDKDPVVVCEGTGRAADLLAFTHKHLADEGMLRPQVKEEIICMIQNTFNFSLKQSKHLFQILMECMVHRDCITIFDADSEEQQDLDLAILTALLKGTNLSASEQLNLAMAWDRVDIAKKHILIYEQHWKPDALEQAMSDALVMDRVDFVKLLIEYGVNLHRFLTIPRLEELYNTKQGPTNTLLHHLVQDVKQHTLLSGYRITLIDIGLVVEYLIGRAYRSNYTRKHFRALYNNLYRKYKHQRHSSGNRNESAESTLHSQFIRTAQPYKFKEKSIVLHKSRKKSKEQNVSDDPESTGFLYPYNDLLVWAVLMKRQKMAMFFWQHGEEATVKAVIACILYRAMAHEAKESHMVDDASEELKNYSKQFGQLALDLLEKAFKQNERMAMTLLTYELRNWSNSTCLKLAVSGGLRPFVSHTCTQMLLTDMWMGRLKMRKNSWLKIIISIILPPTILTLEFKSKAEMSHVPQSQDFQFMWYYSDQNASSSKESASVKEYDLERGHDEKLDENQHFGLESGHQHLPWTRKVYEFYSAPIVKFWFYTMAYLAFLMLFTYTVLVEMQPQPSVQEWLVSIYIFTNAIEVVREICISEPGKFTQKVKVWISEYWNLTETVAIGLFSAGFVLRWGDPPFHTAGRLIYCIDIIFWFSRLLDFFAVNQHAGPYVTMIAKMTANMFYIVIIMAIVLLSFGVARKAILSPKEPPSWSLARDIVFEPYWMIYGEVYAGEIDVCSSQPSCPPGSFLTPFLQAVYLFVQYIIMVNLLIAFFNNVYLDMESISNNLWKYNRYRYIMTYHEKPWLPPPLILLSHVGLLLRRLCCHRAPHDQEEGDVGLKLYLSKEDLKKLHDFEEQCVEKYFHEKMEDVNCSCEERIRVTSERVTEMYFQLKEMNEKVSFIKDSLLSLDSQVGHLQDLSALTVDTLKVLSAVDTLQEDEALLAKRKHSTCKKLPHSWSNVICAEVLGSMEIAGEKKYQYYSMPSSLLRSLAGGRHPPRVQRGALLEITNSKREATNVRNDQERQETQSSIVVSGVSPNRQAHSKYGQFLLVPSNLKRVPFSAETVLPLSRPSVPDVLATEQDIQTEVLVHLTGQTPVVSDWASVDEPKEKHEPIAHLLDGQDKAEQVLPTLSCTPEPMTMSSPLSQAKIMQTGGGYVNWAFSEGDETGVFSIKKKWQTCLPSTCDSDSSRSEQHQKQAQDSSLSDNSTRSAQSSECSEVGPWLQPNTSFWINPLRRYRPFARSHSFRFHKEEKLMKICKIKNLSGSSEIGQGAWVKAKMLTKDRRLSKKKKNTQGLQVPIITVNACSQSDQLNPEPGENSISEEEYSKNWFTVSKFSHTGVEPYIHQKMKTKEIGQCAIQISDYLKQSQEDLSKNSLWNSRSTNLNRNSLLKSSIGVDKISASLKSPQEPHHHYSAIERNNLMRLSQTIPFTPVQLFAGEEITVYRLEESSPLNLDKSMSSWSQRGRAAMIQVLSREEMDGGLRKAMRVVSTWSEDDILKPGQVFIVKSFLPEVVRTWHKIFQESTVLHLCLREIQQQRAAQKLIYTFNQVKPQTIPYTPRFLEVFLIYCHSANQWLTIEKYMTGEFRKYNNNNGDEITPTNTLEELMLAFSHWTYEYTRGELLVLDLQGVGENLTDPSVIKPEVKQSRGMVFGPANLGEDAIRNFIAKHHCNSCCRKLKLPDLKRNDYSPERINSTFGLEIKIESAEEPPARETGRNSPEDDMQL
Mitogen-activated protein kinase kinase kinase kinase 1 (Homo sapiens), sequence (Q92918 whole entry, looked up): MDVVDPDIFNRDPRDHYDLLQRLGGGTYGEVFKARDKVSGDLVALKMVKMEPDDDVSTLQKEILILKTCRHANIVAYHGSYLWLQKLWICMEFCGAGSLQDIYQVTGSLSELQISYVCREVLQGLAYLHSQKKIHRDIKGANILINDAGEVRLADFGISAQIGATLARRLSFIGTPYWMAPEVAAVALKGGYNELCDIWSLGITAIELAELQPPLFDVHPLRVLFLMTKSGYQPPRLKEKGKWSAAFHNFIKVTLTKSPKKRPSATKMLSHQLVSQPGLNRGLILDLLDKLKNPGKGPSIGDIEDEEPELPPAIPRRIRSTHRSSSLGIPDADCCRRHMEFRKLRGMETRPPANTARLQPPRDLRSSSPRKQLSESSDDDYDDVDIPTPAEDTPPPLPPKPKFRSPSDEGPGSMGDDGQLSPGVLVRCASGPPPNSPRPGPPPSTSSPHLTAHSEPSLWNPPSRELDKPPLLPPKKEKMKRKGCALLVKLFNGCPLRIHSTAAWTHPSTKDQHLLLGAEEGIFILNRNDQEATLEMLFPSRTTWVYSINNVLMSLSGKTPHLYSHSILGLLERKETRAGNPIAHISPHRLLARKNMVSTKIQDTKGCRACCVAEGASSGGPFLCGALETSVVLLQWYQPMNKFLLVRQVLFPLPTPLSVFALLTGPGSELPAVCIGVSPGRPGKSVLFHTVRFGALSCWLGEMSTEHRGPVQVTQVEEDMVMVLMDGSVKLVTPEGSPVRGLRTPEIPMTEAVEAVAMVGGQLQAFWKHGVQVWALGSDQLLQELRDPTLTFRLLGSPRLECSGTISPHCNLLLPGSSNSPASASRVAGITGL
Rhodopsin kinase GRK1 (Homo sapiens), sequence (Q15835 whole entry): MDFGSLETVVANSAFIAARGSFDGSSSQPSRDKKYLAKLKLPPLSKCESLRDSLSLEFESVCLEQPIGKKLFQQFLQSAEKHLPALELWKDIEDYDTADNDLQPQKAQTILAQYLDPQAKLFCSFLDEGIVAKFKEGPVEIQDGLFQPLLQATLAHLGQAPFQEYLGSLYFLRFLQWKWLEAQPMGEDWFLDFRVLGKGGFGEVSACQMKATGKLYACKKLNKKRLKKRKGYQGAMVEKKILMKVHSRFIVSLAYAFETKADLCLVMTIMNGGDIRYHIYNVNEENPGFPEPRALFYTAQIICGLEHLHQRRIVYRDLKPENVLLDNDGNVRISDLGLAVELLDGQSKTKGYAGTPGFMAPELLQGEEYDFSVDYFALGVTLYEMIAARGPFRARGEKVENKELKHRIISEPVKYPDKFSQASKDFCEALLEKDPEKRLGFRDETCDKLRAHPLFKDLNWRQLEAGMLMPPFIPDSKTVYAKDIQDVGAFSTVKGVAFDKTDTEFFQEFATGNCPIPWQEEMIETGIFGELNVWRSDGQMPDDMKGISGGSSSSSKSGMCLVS
Serine/threonine-protein kinase Nek7 (Homo sapiens), sequence (Q8TDX7 whole entry, looked up): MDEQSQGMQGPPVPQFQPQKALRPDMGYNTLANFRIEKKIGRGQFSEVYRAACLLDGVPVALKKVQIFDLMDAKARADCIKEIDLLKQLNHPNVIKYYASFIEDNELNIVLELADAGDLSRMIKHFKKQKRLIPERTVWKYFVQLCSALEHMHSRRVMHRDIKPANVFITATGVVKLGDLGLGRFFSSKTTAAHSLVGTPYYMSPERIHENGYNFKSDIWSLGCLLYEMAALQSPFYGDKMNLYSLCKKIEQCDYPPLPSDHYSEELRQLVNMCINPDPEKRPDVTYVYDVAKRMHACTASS
Aurora kinase C (Homo sapiens), sequence (Q9UQB9 whole entry): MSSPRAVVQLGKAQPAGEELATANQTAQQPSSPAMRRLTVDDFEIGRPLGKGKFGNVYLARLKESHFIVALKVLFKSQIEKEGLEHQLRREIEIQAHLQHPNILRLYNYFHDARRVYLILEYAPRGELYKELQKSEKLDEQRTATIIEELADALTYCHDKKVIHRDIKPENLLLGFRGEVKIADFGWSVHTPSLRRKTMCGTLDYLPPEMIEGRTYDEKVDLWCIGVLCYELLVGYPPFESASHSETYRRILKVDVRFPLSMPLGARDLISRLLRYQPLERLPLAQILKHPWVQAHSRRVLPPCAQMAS

CCC(=N\O)/C(C)=C/c1ccc(F)c(C)c1 [A-226]
inactive: [1] 100% | [2] 100% | [3] 82% | [4] 100% | [5] 91% | [6] 100% | [7] 87% | [8] 100% | [9] 96% | [10] 90% | [11] 100% | [12] 92% | [13] 98% | [14] 100% | [15] 73% | [16] 100% | [17] 71% | [18] 92% | [19] 99% | [20] 99% | [21] 100% | [22] 50% | [23] 88% | [24] 100% | [25] 100% | [26] 100% | [27] 94% | [28] 91% | [29] 89% | [30] 100% | [31] 100% | [32] 86% | [33] 92% | [34] 62% | [35] 97% | [36] 100% | [37] 100% | [38] 89% | [39] 100% | [40] 100% | [41] 100% | [42] 53% | [43] 100% | [44] 73% | [45] 100%

CCC(=N\O)/C(C)=C/c1ccc(F)cc1 [A-079]
inactive: [1] 52% | [2] 80% | [3] 100% | [4] 80% | [5] 87% | [6] 86% | [7] 69% | [8] 79% | [9] 82% | [10] 85% | [11] 79% | [12] 99% | [13] 87% | [14] 91% | [15] 65% | [16] 65% | [17] 59% | [18] 86% | [19] 100% | [20] 76% | [21] 67% | [22] 70% | [23] 79% | [24] 92% | [25] 85% | [26] 92% | [27] 100% | [28] 100% | [29] 100% | [30] 78% | [31] 85% | [32] 100% | [33] 100% | [34] 76% | [35] 100% | [36] 100% | [37] 96% | [38] 100% | [39] 66% | [40] 89% | [41] 85% | [42] 70% | [43] 64% | [44] 81% | [45] 72%
